In ChEMBL document CHEMBL2440076, “New triarylpyrazoles as broad-spectrum anticancer agents: design, synthesis, and biological evaluation” (Eur J Med Chem, 2013):

Legend:
Assay type in all cases: functional
SK-MEL-5 [1] = test: Growth inhibition of human SK-MEL-5 cells assessed as cell growth at 10^-6 M after 48 hrs by sulforhodamine B assay; details: SK-MEL-5, 48 h, read-out: Activity
SK-OV-3 [2] = test: Growth inhibition of human SKOV3 cells assessed as cell growth at 10^-8 M after 48 hrs by sulforhodamine B assay; details: SK-OV-3, 48 h, read-out: Activity
Malme-3M = test: Growth inhibition of human MALME-3M cells assessed as cell growth at 10^-7 M after 48 hrs by sulforhodamine B assay; details: read-out: Activity
PC-3 [3] = test: Growth inhibition of human PC3 cells assessed as cell growth at 10^-6 M after 48 hrs by sulforhodamine B assay; details: PC-3, 48 h, read-out: Activity
NCI-H226 = test: Growth inhibition of human NCI-H226 cells assessed as cell growth at 10^-7 M after 48 hrs by sulforhodamine B assay; details: NCI-H226, 48 h, read-out: Activity
T47D = test: Growth inhibition of human T47D cells assessed as cell growth at 10^-4 M after 48 hrs by sulforhodamine B assay; details: read-out: Activity
NCI-H522 = test: Growth inhibition of human NCI-H522 cells assessed as cell growth at 10^-8 M after 48 hrs by sulforhodamine B assay; details: NCI-H522, 48 h, read-out: Activity
MDA-MB-231 = test: Growth inhibition of human MDA-MB-231 cells assessed as cell growth at 10^-4 M after 48 hrs by sulforhodamine B assay; details: MDA-MB-231, 48 h, read-out: Activity
SK-MEL-28 [4] = test: Growth inhibition of human SK-MEL-28 cells assessed as cell growth at 10^-6 M after 48 hrs by sulforhodamine B assay; details: SK-MEL-28, 48 h, read-out: Activity
UACC-62 = test: Growth inhibition of human UACC62 cells assessed as cell growth at 10^-5 M after 48 hrs by sulforhodamine B assay; details: UACC-62, 48 h, read-out: Activity
HOP-92 = test: Growth inhibition of human HOP92 cells assessed as cell growth at 10^-7 M after 48 hrs by sulforhodamine B assay; details: HOP-92, 48 h, read-out: Activity
TK-10 = test: Growth inhibition of human TK10 cells assessed as cell growth at 10^-4 M after 48 hrs by sulforhodamine B assay; details: TK-10, 48 h, read-out: Activity
OVCAR-8 = test: Growth inhibition of human OVCAR8 cells assessed as cell growth at 10^-4 M after 48 hrs by sulforhodamine B assay; details: OVCAR-8, 48 h, read-out: Activity
SNB-19 = test: Growth inhibition of human SNB19 cells assessed as cell growth at 10^-7 M after 48 hrs by sulforhodamine B assay; details: SNB-19, 48 h, read-out: Activity
SK-MEL-5 [5] = test: Growth inhibition of human SK-MEL-5 cells assessed as cell growth at 10^-5 M after 48 hrs by sulforhodamine B assay; details: SK-MEL-5, 48 h, read-out: Activity
HCT-116 = test: Growth inhibition of human HCT116 cells assessed as cell growth at 10^-4 M after 48 hrs by sulforhodamine B assay; details: HCT-116, 48 h, read-out: Activity
SK-OV-3 [6] = test: Growth inhibition of human SKOV3 cells assessed as cell growth at 10^-4 M after 48 hrs by sulforhodamine B assay; details: SK-OV-3, 48 h, read-out: Activity
SN12C = test: Growth inhibition of human SN12C cells assessed as cell growth at 10^-5 M after 48 hrs by sulforhodamine B assay; details: read-out: Activity
U-251 = test: Growth inhibition of human U251 cells assessed as cell growth at 10^-4 M after 48 hrs by sulforhodamine B assay; details: U-251, 48 h, read-out: Activity
IGROV-1 = test: Growth inhibition of human IGROV1 cells assessed as cell growth at 10^-8 M after 48 hrs by sulforhodamine B assay; details: IGROV-1, 48 h, read-out: Activity
NCI-H322M = test: Growth inhibition of human NCI-H322M cells assessed as cell growth at 10^-6 M after 48 hrs by sulforhodamine B assay; details: read-out: Activity
SK-MEL-28 [7] = test: Growth inhibition of human SK-MEL-28 cells assessed as cell growth at 10^-7 M after 48 hrs by sulforhodamine B assay; details: SK-MEL-28, 48 h, read-out: Activity
[8] = Growth inhibition of human HCC2998 cells assessed as cell growth at 10^-8 M after 48 hrs by sulforhodamine B assay; details: HCC 2998, 48 h, read-out: Activity
A549 = test: Growth inhibition of human A549/ATCC cells assessed as cell growth at 10^-8 M after 48 hrs by sulforhodamine B assay; details: A549, 48 h, read-out: Activity
[9] = Growth inhibition of human NCI-ADR-RES cells assessed as cell growth at 10^-8 M after 48 hrs by sulforhodamine B assay; details: read-out: Activity
COLO 205 = test: Growth inhibition of human COLO205 cells assessed as cell growth at 10^-6 M after 48 hrs by sulforhodamine B assay; details: COLO 205, 48 h, read-out: Activity
786-0 = test: Growth inhibition of human 786-0 cells assessed as cell growth at 10^-4 M after 48 hrs by sulforhodamine B assay; details: 786-0, 48 h, read-out: Activity
[10] = Growth inhibition of human HCC2998 cells assessed as cell growth at 10^-7 M after 48 hrs by sulforhodamine B assay; details: HCC 2998, 48 h, read-out: Activity
SK-MEL-28 [11] = test: Growth inhibition of human SK-MEL-28 cells assessed as cell growth at 10^-4 M after 48 hrs by sulforhodamine B assay; details: SK-MEL-28, 48 h, read-out: Activity
A498 = test: Growth inhibition of human A498 cells assessed as cell growth at 10^-6 M after 48 hrs by sulforhodamine B assay; details: A498, 48 h, read-out: Activity
HCT-15 = test: Growth inhibition of human HCT15 cells assessed as cell growth at 10^-6 M after 48 hrs by sulforhodamine B assay; details: HCT-15, 48 h, read-out: Activity
OVCAR-3 = test: Growth inhibition of human OVCAR3 cells assessed as cell growth at 10^-5 M after 48 hrs by sulforhodamine B assay; details: OVCAR-3, 48 h, read-out: Activity
DU-145 = test: Growth inhibition of human DU145 cells assessed as cell growth at 10^-7 M after 48 hrs by sulforhodamine B assay; details: DU-145, 48 h, read-out: Activity
MCF7 = test: Growth inhibition of human MCF7 cells assessed as cell growth at 10^-6 M after 48 hrs by sulforhodamine B assay; details: MCF7, 48 h, read-out: Activity
MOLT-4 = test: Growth inhibition of human MOLT4 cells assessed as cell growth at 10^-6 M after 48 hrs by sulforhodamine B assay; details: MOLT-4, 48 h, read-out: Activity
PC-3 [12] = test: Growth inhibition of human PC3 cells assessed as cell growth at 10^-5 M after 48 hrs by sulforhodamine B assay; details: PC-3, 48 h, read-out: Activity
CCRF-CEM = test: Growth inhibition of human CCRF-CEM cells assessed as cell growth at 10^-6 M after 48 hrs by sulforhodamine B assay; details: read-out: Activity

SMILES	growth at 1 µM (SK-MEL-5 [1]) [%]	growth at 0.01 µM (SK-OV-3 [2]) [%]	growth at 0.1 µM (Malme-3M) [%]	growth at 1 µM (PC-3 [3]) [%]	growth at 0.1 µM (NCI-H226) [%]	growth at 100 µM (T47D) [%]	growth at 0.01 µM (NCI-H522) [%]	growth at 100 µM (MDA-MB-231) [%]	growth at 1 µM (SK-MEL-28 [4]) [%]	growth at 10 µM (UACC-62) [%]	growth at 0.1 µM (HOP-92) [%]	growth at 100 µM (TK-10) [%]	growth at 100 µM (OVCAR-8) [%]	growth at 0.1 µM (SNB-19) [%]	growth at 10 µM (SK-MEL-5 [5]) [%]	growth at 100 µM (HCT-116) [%]	growth at 100 µM (SK-OV-3 [6]) [%]	growth at 10 µM (SN12C) [%]	growth at 100 µM (U-251) [%]	growth at 0.01 µM (IGROV-1) [%]	other results
COc1cc(-c2nn(-c3cccc(NC(=O)c4ccccc4)c3)cc2-c2ccncc2)ccc1Cl	10	97	82	29	96	30	91	-42	60	25	86	23	26	97	-60	9	19	34	-18	105	growth at 1 µM (NCI-H322M): 78%; growth at 0.1 µM (SK-MEL-28 [7]): 94%; growth at 0.01 µM [8]: 97%; growth at 0.01 µM (A549): 96%; growth at 0.01 µM [9]: 98%; growth at 1 µM (COLO 205): 32%; growth at 100 µM (786-0): 18%; growth at 0.1 µM [10]: 100%; growth at 100 µM (SK-MEL-28 [11]): 26%; growth at 1 µM (A498): 19%; growth at 1 µM (HCT-15): 40%; growth at 10 µM (OVCAR-3): 2%; growth at 0.1 µM (DU-145): 100%; growth at 1 µM (MCF7): 17%; growth at 1 µM (MOLT-4): 41%; growth at 10 µM (PC-3 [12]): 13%; growth at 1 µM (CCRF-CEM): 27%
COc1cc(-c2nn(-c3cccc(NC(=O)c4ccc(N5CCOCC5)c(C(F)(F)F)c4)c3)cc2-c2ccncc2)ccc1Cl	-11	103	52	15	87	13	97	-30	56	-4	56	-7	1	81	-55	2	-28	14	-59	111	growth at 1 µM (NCI-H322M): 36%; growth at 0.1 µM (SK-MEL-28 [7]): 68%; growth at 0.01 µM [8]: 101%; growth at 0.01 µM (A549): 94%; growth at 0.01 µM [9]: 102%; growth at 1 µM (COLO 205): 5%; growth at 100 µM (786-0): 3%; growth at 0.1 µM [10]: 92%; growth at 100 µM (SK-MEL-28 [11]): 13%; growth at 1 µM (A498): 1%; growth at 1 µM (HCT-15): 27%; growth at 10 µM (OVCAR-3): -36%; growth at 0.1 µM (DU-145): 98%; growth at 1 µM (MCF7): 18%; growth at 1 µM (MOLT-4): 38%; growth at 10 µM (PC-3 [12]): 1%; growth at 1 µM (CCRF-CEM): 12%
